# Test results: patent US10946019B2, “Nurr1:RXR activating compounds for simultaneous treatment of symptoms and pathology of Parkinson's disease” (priority 2015, dated 2021)
# Assays:
# [1] = target: Nurr1:RXRγ heterodimer (Homo sapiens (Human), UniProt P48443); assay: Nurr1:RXRγ luciferase reporter transactivation assay; format: cell-based; details: SHSY-5Y
# Method: Synthesized compounds of the invention and their analogs, shown in Table 1, below, were evaluated for activity in cellular assays. The in vitro transactivation assay determined the capacity of the compounds of the invention to activate the Nurr1:RXR heterodimers. Naive SHSY-5Y cells were transiently co-transfected, using Lipofectamine 2000 (Invitrogen), with a plasmid expressing the human receptor Nurr1, a plasmid expressing the RXR human receptor (RXRα or RXRγ receptor) and a reporter plasmid DR5-TK-Luc. After 24 hours, the culture medium was changed. The test compounds were added (final concentration between 0.5, 2.5 and 12.5 μM) in the culture medium. After incubation overnight, the expression of luciferase was measured (FIG. 1A). Positive control cells were treated with XCT0135908 (1 μM; WO 2005/047268) which induces activation of the Nurr1:RXR heterodimer and results in maximal expression of luciferase. The transcription-activating activities of various compounds of the invention are shown in FIG. 1B, as well as in Table 1, below. […] Furthermore, compound 3 is selective for the Nurr1:RXRα heterodimer over the Nurr1:RXRγ heterodimer (FIG. 1D).
# [2] = test system: C57BL/6 mice injected unilaterally with 6-OHDA; assay: Neuroprotection in the unilateral 6-OHDA mouse model; details: for reduction of apomorphine induced contralateral turns: 10 mg/kg IP every 12 hours
# [3] = Plasma and brain concentrations by LC-MS/MS after IP administration to mice; format: in vivo, mouse; details: mouse, in vivo, ip
# Method: FIGS. 68A and 68B show the pharmacokinetic profile of XCT in blood plasma and in the brain of mice injected with this compound. […] Serial tail bleeds (n=3) were used for detection of the compound in plasma 1 and 2 hours after IP administration. Similarly, mice (n=3) were sacrificed 1 and 2 hours after IP administration and brains were dissected. The concentrations of the parent compound in plasma and brain were determined by LC-MS/MS.
# The concentrations of the parent compound in plasma and brain were determined by LC/MSMS.
# XCT0135908 was administered to mice to test its bioactivity.
# [4] = test system: LRRK2-G2019S mutated DAergic neurons; assay: Neurite phenotypes of PD patient LRRK2-G2019S iPSc-derived DAergic neurons; format: cell-based, human; details: 12.5 μM for 14 days
# Method: To ascertain the translational therapeutic potential of compound 3, we tested whether human midbrain-specific iPSc-derived DAergic neurons, as indicated by positive staining and qPCR for the neuronal markers MAP2, TH, FoxA2, Lmx1 and En1, can be protected from MPP+ toxicity. Compound 3 was able to double the number of surviving neurons after MPP+ exposure within 24 hours, compared to vehicle (FIGS. 72J-72L). The surviving control neurons had fewer and retreating projections, indicating compromised function (FIG. 72K) while the neurons that had received compound 3 had retained a complex network of projections and contacts (FIG. 72L). In addition, we tested compound 3 in iPSc-derived DAergic neurons from a PD patient carrying the LRRK2-G2019S mutation.
# [5] = test system: striatum 5HT levels; assay: Striatal 5-HT and 5-HIAA levels by HPLC-ECD; format: in vivo, mouse; details: C57/BL6 mice, IP 20 mg/kg, 4 h post injection
# Method: (§1) We measured striatal 5-HT levels, and we detected 5-HT and 5-HIAA in wild type C57/BL6 mice. 4 hours after dosing animals were killed by cervical dislocation, brains were removed, and the striata were dissected on ice. The samples were immediately frozen and stored at −80° C. until use. The tissues were processed for the analysis by high performance liquid chromatography (HPLC) with an electrochemical detector (ECD) (Emmanouil et al., 2006). The dissected tissues were weighed, homogenized, and deproteinized in 0.2 N perchloric acid solution containing 7.9 mM Na2S2O5 and 1.3 mM Na2EDTA. The homogenate was centrifuged at 37,000×g for 30 minutes, and the supernatant was stored at −80° C. until assayed. A reverse-phase ion-pair chromatography was used in all analyses, and the mobile phase consisted of an acetonitrile-50 mM phosphate buffer at pH 3.0, containing 5-octylsulfate sodium salt (300 mg/L) as the ion-pair reagent and (20 mg/L) Na2EDTA. Reference standards were prepared in 0.2 N perchloric acid solution containing 7.9 mM Na2S2O5 and 1.3 mM Na2EDTA. Samples were quantified by comparison of the areas under the peaks with those of reference standards using HPLC software (Chromatography Station for Windows™, Watrex International Inc., San Francisco, Calif.) (FIG. 3C).
# [6] = test system: noradrenaline levels; assay: Striatal noradrenaline levels by HPLC-ECD; format: in vivo, mouse; details: 4 hours
# Method: as §1, with “4” for “We measured striatal 5-HT levels, and we detected 5-HT and 5-HIAA in wild type C57/BL6 mice. 4”, “3D).” for “3C).”
# [7] = test system: AAV-ASYN injected mice; assay: Neuroprotection in the AAV-ASYN mouse model; format: in vivo; details: 10 mg/kg every 12 h for 2 weeks, vs vehicle
# Method: Because the predictive validity of toxin-based mouse PD models for neuroprotection in humans is questionable, we proceeded to test the effect of compound 3 in a mouse model, where AAV viruses overexpressing wt alpha-synuclein (AAV-ASYN) under the chicken beta-actin promoter were unilaterally injected, combined with contralateral injections of (AAV-GFP). The same compound 3 (10 mg/kg every 12 h for 2 weeks) or vehicle treatment regimen was followed as in the toxin models.
# [8] = target: Nurr1:RXRα heterodimer (Homo sapiens (Human), UniProt P19793); assay: Nurr1:RXRα-dependent luciferase reporter (DR5-TK-Luc) transactivation assay; format: cell-based; details: SHSY-5Y, luciferase
# Nurr1:RXRα heterodimer, sequence (P19793 whole entry): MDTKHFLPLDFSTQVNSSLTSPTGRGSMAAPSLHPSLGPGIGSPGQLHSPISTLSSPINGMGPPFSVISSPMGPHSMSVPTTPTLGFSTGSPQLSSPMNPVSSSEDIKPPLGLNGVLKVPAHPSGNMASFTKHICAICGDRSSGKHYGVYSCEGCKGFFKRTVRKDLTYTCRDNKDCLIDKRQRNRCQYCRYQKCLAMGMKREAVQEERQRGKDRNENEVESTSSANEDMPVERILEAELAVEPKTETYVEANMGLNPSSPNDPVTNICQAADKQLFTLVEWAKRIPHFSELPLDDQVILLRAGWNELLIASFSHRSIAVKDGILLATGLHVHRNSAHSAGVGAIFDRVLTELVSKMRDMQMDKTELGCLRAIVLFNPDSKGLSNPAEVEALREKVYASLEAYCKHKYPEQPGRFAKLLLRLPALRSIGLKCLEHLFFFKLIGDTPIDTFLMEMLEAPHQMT
# Nurr1:RXRα heterodimer, sequence (P43354 whole entry partner): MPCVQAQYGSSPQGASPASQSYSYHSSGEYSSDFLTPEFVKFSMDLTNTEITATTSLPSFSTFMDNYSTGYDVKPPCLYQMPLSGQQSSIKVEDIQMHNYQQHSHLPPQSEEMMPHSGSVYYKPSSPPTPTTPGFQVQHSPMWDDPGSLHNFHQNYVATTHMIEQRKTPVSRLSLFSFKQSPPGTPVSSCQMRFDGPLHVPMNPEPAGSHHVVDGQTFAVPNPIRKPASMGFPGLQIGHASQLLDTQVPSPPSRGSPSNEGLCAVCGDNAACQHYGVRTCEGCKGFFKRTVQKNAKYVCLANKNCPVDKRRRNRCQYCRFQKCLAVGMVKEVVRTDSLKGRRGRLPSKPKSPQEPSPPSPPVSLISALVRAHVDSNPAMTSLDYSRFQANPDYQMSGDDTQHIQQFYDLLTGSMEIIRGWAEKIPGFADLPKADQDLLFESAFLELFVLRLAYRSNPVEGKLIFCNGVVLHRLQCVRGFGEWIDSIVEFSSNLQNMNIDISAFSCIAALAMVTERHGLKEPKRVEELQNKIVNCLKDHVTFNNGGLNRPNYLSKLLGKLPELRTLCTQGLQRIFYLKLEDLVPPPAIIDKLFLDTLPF
# Method: The in vitro transactivation assay determined the capacity of the compounds of the invention to activate the Nurr1:RXR heterodimers. Naive SHSY-5Y cells were transiently co-transfected, using Lipofectamine 2000 (Invitrogen), with a plasmid expressing the human receptor Nurr1, a plasmid expressing the RXR human receptor (RXRα or RXRγ receptor) and a reporter plasmid DR5-TK-Luc. […] After incubation overnight, the expression of luciferase was measured (FIG. 1A).
# Nurr1:RXRγ heterodimer, sequence (P48443 whole entry, looked up): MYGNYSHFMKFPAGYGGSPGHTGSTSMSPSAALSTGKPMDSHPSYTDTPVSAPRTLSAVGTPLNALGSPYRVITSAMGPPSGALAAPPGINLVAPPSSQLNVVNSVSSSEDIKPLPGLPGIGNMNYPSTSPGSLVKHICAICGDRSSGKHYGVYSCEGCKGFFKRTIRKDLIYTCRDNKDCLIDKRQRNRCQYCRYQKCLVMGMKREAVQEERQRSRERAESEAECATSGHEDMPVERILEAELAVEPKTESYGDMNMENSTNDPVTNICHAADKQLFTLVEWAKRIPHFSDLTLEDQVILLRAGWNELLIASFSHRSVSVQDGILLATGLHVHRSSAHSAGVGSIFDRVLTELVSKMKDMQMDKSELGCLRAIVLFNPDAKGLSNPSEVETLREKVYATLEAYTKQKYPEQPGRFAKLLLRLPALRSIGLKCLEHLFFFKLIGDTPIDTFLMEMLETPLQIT
# Nurr1:RXRγ heterodimer, sequence (P43354 whole entry partner, looked up): as the sequence (P43354 whole entry partner) above
smiles,measurement,setting,value
"C=CCc1c(N(C)c2ccc(C(=O)O)cc2)nc(-c2ccccc2)nc1C(F)(F)F [Example 3, 4-((5-allyl-2-phenyl-6-(trifluoromethyl)pyrimidin-4-yl)(methyl)amino)benzoic acid]",activation of Nurr1:RXRγ heterodimers,[1],did not activate
same,motor coordination (rotarod test),"[2]; 6-OHDA, 10 mg/kg IP every 12 hours for 14 days",almost entirely restored to control levels
same,reduction of apomorphine induced contralateral turns,"[2]; 6-OHDA, vs vehicle, listed as Compound 3",approximately 8 fold
same,reduction of apomorphine induced contralateral turns,"[2]; 6-OHDA, vs vehicle, listed as compound 3",over 8 fold
same,increase in number of surviving neuronal bodies (SNpc),"[2]; 6-OHDA, IP 10 mg/kg every 12 hours for 15 days",256.55%
same,preservation of striatal TH(+) DAergic projections (innervation),"[2]; 6-OHDA, vs vehicle",10 fold
same,Rotarod test improvement,"[2]; unilateral 6-OHDA, compound 3 vs vehicle (n=5)",12 fold
same,brain penetration,[3],reaching the brain
same,half-life,[3]; 1 mg/kg,~2 h
same,increase of neurite branching,[4],650%
same,increase of neurite length,[4],83%
same,increase of neurite number,[4],38%
same,striatum 5HT levels and 5HT metabolite 5HIAA levels,[5],increased
same,noradrenaline levels,[6]; IP 10 mg/kg,remained unaffected
same,noradrenaline levels,"[6]; wild type C57/BL6 mice, single IP 20 mg/kg",did not increase
same,number of NeuN(+) midbrain neurons,[7],increased
same,increase of TH(+) midbrain neurons,[7]; listed as Compound 3,48%
same,increase of TH(+) midbrain neurons,[7]; listed as compound 3,about 47%
same,activation of Nurr1:RXRα heterodimers,[8],activated
